From article PMC11766344, “HGS Promotes Tumor Growth, Whereas the Coiled-Coil Domain and Its Oligopeptide of HGS Suppress It” (International Journal of Molecular Sciences, 2025)
Entries after “also recorded” stand apart in the source; their conditions may differ.

Columns and labels:
MDCK normal cells = assay: Anchorage-dependent growth in normal adhesion plates, MDCK normal cells; assay type: cell-based, canine
From the text: (§1) The effect of OP12-462 on anchorage-independent growth was examined; normal cells can proliferate in an anchorage-dependent manner but cannot in an anchorage-independent manner, whereas cancer cells can both proliferate in the anchorage-independent manner and form tumors. In normal (adhesion) plates, cancer cells adhere to the surface of plates and proliferate in the anchorage-dependent manner, so the anchorage-independent growth ability of the cancer cells cannot be observed. In ultra-low attachment surface (ULAS) plates, the cancer cells cannot adhere to the surface nor proliferate in the anchorage-dependent manner but can proliferate in the anchorage-independent manner. By measuring the proliferation ability of cancer cells on the ULAS plates, we can determine the anchorage-independent growth ability of the cells. […] Next, the effect of OP12-462 on tumor growth was examined. COLO 205 cells were inoculated subcutaneously into the back of BALB/cSlc-nu/nu nude mice. The day when the tumor volume exceeded 250 mm^3 was set as day 0, and OP12-462 (50 mg/kg body weight) in 0.2 mL of PBS solution or vehicle (PBS) was administered once a day into the tail vein for 10 days from day 0 to day 9.

normal or cancer cells = assay: Acute toxicity to cells in vitro; assay type: cell-based
From the text: HGS/C and oligopeptides constituting HGS/C, including OP12-462, might be new tumor growth inhibitors that suppress tumor growth by inhibiting the anchorage-independent growth ability of cancer cells rather than directly destroying cancer cells. […] HGS/C and the OP12-462 are novel inhibitors of TGF-β-SMAD and Wnt-β-catenin signal transduction. They not only have a novel tumor growth suppression effect but also have the potential to become novel medicines for diseases, including various fibrosis diseases, whose symptoms worsen owing to the enhancement of these signal transduction pathways. Potential drug targets of EMT in metastasis are now in development. HGS and HGS/C are an inducer and an inhibitor of EMT and tumorigenesis. Therefore, HGS and HGS/C could be good targets of EMT-blocking drugs for clinical application.

COLO 205 cells = assay: In vitro anchorage-independent growth inhibition test, ULAS plate; assay type: cell-based, human; details: 2 × 10^3 cells/well, ULAS 96-well plate, Opti-MEM 5% FBS, 7 days, 37 °C, Cell Counting Kit-8 A450 nm
From the text: as §1, with “The day when the tumor volume exceeded 250 mm^3 was set as day 0, and OP12-462 (50 mg/kg body weight) in 0.2 mL of PBS solution or vehicle (PBS) was administered once a day into the tail vein for 10 days from day 0 to day 9.” left out
After 7 days, 0.1 mL of Cell Counting Kit-8 solution (5-fold PBS diluted solution) was added, and the absorbance A450 nm was immediately measured and set as the T0 blank value. After incubating at 37 °C for 2 h, the absorbance A450 nm was measured again and set as T2. The absorbance difference between T2 and T0 was defined as the anchorage-independent or anchorage-dependent growth activity value.

[1] = Body weight and acute toxicity in tumor-bearing nude mice given OP12-462; assay type: in vivo, nude mice (BALB/cSlc-nu/nu)
From the text: as §1
The cells were resuspended at a cell density of 1 × 10^6 cells in 100 µL of PBS and were inoculated subcutaneously into the flank region of 8-week-old female nude mice. The day when the tumor volume exceeded 250 mm^3 was set as Day 0, and oligopeptide OP12-462 (50 mg/kg body weight) was administered as a 0.2 mL PBS solution in the tail vein once daily for 10 days from Day 0 to Day 9. Tumor sizes were measured daily.

COLO205 cells = assay: Oligopeptide tumor growth inhibition test, subcutaneous COLO205 tumors in nude mice; assay type: in vivo, nude mice (BALB/cSlc-nu/nu)
From the text: The effect of OP12-462 on anchorage-independent growth was examined; normal cells can proliferate in an anchorage-dependent manner but cannot in an anchorage-independent manner, whereas cancer cells can both proliferate in the anchorage-independent manner and form tumors. In normal (adhesion) plates, cancer cells adhere to the surface of plates and proliferate in the anchorage-dependent manner, so the anchorage-independent growth ability of the cancer cells cannot be observed. In ultra-low attachment surface (ULAS) plates, the cancer cells cannot adhere to the surface nor proliferate in the anchorage-dependent manner but can proliferate in the anchorage-independent manner. By measuring the proliferation ability of cancer cells on the ULAS plates, we can determine the anchorage-independent growth ability of the cells. […]
After a 2-week acclimation period, 8-week-old female C57BL/6 or nude mice were randomly divided into groups. […] Tumor formation was monitored for 4 or 5 weeks after the inoculation by measuring the width (W) and length (L) of the tumors with W < L. The tumor volume was calculated according to the formula (W2 × L × π/6).
The cells were resuspended at a cell density of 1 × 10^6 cells in 100 µL of PBS and were inoculated subcutaneously into the flank region of 8-week-old female nude mice. […] Tumor sizes were measured daily.

Sequence: ERRLYYEGLQDK [OP12-462, oligopeptide of 12 amino acid residues (…) constituting the coiled-coil domain of HGS]
- Anchorage-dependent growth of MDCK normal cells (MDCK normal cells): did not inhibit
- Acute toxicity to normal or cancer cells in vitro (normal or cancer cells): no acute toxicity
- Anchorage-independent growth activity (COLO 205 cells): inhibited the anchorage-independent growth activity of COLO 205 cells (Figure 5b) in a concentration-dependent manner
- Average body weight / weight loss ([1]; 50 mg/kg tail vein for 10 consecutive days): no change in the average body weight; also recorded: did not result in weight loss
- Acute toxicity due to administration ([1]; 50 mg/kg tail vein once daily for 10 days): No acute toxicity
- Changes in body weight of each mouse ([1]; ten days after administration, 50 mg/kg tail vein once daily for 10 days): −0.4% to +2
- Tumor growth (tumor volume) versus vehicle (COLO205 cells; 50 mg/kg body weight in 0.2 mL PBS, tail vein, once daily for 10 days (day 0 to day 9), day 0 = tumor volume exceeded 250 mm^3, nude mice, n = 5): statistically significant from the third day onwards; also recorded: significantly suppressed the growth of the tumor
- Duration of tumor growth suppression after end of administration (COLO205 cells; 50 mg/kg tail vein once daily day 0 to day 9, nude mice with COLO205 tumors): for more than two weeks after the administration had ended
